From patent US20230295109A1, “PYRIDINONE COMPOUNDS FOR THE TREATMENT OF AUTOIMMUNE DISEASE” (F. Hoffmann-La Roche AG, priority 2020, published 2023) come the findings set out here.

Series [1] concerns the target T1, TLR9 (Homo sapiens, UniProt Q9NR96).
T1 sequence (Q9NR96 26-1032): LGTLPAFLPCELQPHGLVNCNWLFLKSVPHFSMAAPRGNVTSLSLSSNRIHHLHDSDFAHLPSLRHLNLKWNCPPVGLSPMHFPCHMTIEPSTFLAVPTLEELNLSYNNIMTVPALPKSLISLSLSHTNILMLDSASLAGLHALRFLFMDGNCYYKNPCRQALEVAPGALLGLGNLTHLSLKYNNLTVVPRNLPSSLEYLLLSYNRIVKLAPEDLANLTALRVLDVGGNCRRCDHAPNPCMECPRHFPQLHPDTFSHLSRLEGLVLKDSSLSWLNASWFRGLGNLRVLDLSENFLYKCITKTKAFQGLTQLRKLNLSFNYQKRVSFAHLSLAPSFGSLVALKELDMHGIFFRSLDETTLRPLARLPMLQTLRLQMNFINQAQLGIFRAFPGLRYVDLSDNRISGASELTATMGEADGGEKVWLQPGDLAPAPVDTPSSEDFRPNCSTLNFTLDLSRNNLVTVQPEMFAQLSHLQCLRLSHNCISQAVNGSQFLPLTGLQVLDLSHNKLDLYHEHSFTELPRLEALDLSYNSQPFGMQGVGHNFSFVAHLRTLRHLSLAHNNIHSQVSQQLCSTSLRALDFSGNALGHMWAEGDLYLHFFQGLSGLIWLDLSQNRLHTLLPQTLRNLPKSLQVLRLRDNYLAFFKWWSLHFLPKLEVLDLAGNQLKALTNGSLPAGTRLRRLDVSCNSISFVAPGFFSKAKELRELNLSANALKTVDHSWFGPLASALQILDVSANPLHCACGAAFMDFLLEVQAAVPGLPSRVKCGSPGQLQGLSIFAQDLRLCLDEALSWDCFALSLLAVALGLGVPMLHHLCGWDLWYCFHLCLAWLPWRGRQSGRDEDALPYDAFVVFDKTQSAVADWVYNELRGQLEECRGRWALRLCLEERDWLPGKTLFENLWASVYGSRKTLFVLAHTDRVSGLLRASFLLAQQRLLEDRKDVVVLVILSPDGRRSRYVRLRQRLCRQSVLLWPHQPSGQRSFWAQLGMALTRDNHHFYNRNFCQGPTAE
Briefly: Human PBMC cell-based assay, TLR9 (CpG ODN 2216). On the set-up: These cells express TLR7, TLR8, or TLR9, and therefore are natural responders to respective ligand stimulation; endogenous in cells; host or cells: primary human PBMC from healthy donor whole blood. To be noted: CpG ODN 2216 at 1 µM, overnight, cytokine levels, read-out: hPBMC/TLR9 IC50. The text has this: Unlike the HEK reporter cell lines, human peripheral blood mononuclear cell (PBMC) represents primary human immune cells in blood mainly consisting of lymphocytes, monocytes, and dendritic cells. These cells express TLR7, TLR8, or TLR9, and therefore are natural responders to respective ligand stimulation. Upon activation of these TLRs, PBMCs secrete similar cytokines and chemokines in vitro and in vivo, and therefore the in vitro potency of a TLR7/8/9 antagonist in human PBMC is readily translatable to its pharmacodynamics response in vivo.
Human peripheral blood mononuclear cells (PBMC) were isolated from freshly-drawn lithium-heparinized (Lithium Heparin Plus blood Collection tube, BD Vacutainer®) healthy donor whole blood by density gradient (Ficoll-PaqueTM PLUS, GE Healthcare life Sciences). Briefly, […] was diluted with 25 mL PBS (without Ca^2+, Mg^2+) in a 50 mL conical tube with porous barrier (Leucosep tube, Greiner bio-one), where 15.5 mL Ficoll-Paque was under laid after spinning. Tubes were centrifuged for 20 minutes at 800×g (1946 rpm) with the brake in the off position, and PBMC were collected from the buffy coat. Cells were then washed twice in PBS, and red blood cells were lysed by suspension in 2 mL (Red Blood Cell Lysis Buffer, Alfa Aesar) for 5-10 minutes at room temperature. After a final wash in PBS, PBMC were resuspended at a final concentration of 2×10^6 cells/mL in RPMI-1640 media with GlutaMAXTM (Gibco) supplemented with 10% Fetal Bovine Serum (Sigma) and plated at 150µL/well (3×10^5 cells/well) in tissue culture treated round bottom 96-well plates (Corning Incorporated). Antagonist compounds (compounds of this invention) solubilized and serial diluted in 100% DMSO were added in duplicate to cells to yield a final concentration of 1% DMSO (v/v). PBMC were incubated with antagonist compounds for 30 minutes at 37° C., 5% CO2 before adding various TLR agonist reagents in 48 µL complete media per well as follows (final concentrations indicated): CpG ODN 2216 (InvivoGen) at 1 µM for TLR9, ORN 06/LyoVec (InvivoGen) at 1 µg/mL for TLR8 and R848 (InvivoGen) at 1 µg/mL for TLR7 and TLR8. PBMC were incubated overnight at 37° C. with 5% CO2. Cell culture supernatants were collected, and levels of various human cytokines were assessed by Luminex assay (ProcartaPlexTM Multiplex Immunoassay, Invitrogen) or ELISA procedure according to the manufacturer’s recommended protocol (eBioscience, ThermoFisher Scientific). Viability of the cells was also checked with Cell Viability Assay (CellTiter Glo®Luminescent Cell Viability Assay, Promega).

The target of series [2] is T2, hERG channel (Homo sapiens, UniProt Q12809).
T2 construct: expressed in transfected cells; host or cells: CHO (Chinese hamster ovary), CHOhERG
T2 sequence (Q12809 whole entry): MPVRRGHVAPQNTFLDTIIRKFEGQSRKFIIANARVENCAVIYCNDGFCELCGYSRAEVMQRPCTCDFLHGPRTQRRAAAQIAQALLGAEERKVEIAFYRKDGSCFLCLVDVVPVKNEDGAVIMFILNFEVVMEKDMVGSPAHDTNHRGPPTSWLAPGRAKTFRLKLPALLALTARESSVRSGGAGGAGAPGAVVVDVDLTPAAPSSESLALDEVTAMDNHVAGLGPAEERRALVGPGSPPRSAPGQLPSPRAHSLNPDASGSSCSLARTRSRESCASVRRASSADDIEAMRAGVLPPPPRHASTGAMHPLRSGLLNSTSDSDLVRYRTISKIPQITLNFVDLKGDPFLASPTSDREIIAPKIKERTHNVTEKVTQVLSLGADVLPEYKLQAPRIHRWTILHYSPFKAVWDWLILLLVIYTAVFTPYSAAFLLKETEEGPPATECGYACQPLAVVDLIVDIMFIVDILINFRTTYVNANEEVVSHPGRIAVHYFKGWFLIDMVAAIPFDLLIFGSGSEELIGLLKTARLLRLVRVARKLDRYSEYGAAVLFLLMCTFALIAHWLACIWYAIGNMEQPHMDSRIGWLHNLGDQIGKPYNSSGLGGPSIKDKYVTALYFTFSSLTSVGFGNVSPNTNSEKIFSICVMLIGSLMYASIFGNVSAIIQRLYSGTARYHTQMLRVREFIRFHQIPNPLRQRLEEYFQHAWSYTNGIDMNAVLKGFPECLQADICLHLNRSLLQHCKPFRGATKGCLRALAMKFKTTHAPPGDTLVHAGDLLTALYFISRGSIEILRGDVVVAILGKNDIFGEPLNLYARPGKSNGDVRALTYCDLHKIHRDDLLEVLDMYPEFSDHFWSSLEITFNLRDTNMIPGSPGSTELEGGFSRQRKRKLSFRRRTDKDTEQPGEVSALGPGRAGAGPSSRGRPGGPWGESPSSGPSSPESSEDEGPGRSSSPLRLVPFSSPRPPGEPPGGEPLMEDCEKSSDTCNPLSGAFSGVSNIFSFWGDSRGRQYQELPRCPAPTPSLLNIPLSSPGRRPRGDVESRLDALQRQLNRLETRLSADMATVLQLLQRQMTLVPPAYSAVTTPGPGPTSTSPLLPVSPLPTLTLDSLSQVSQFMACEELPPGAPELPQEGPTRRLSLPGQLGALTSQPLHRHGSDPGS
Description: hERG channel inhibition assay (patch-clamp, CHOhERG cells). To be noted: for IC50 / IC20: CHOhERG cells, whole-cell patch-clamp; for IC20: human, CHO cells stably expressing hERG (CHOhERG); for hERG IC20 / TLR8 IC50 / hERG IC20 / TLR9 IC50 / hERG IC20 /TLR7 IC50: safety ratio. The class given is cell-based. The procedure: The hERG K^+ channels were cloned in humans and stably expressed in a CHO (Chinese hamster ovary) cell line. CHOhERG cells were used for patch-clamp (voltage-clamp, whole-cell) experiments. Cells were stimulated by a voltage pattern to activate hERG channels and conduct IKhERG currents (rapid delayed outward rectifier potassium current of the hERG channel). After the cells were stabilized for a few minutes, the amplitude and kinetics of IKhERG were recorded at a stimulation frequency of 0.1 Hz (6 bpm). Thereafter, the test compound was added to the preparation at increasing concentrations. For each concentration, an attempt was made to reach a steady-state effect, usually, this was achieved within 3-10 min at which time the next highest concentration was applied. The amplitude and kinetics of IKhERG are recorded in each concentration of the drug which were compared to the control values (taken as 100%). (references: Redfern WS, Carlsson L, Davis AS, Lynch WG, MacKenzie I, Palethorpe S, Siegl PK, Strang I, Sullivan AT, Wallis R, Camm AJ, Hammond TG. 2003; Relationships between preclinical cardiac electrophysiology, clinical QT interval prolongation and torsade de pointes for a broad range of drugs: evidence for a provisional safety margin in drug development. Cardiovasc. Res. 58:32-45, Sanguinetti MC, Tristani-Firouzi M. 2006; hERG potassium channels and cardiac arrhythmia. Nature 440:463-469, Webster R, Leishman D, Walker D. 2002; Towards a drug concentration effect relationship for QT prolongation and torsades de pointes. Curr. Opin. Drug Discov. Devel. 5:116-26).

SMILES strings stand for the structures. Some results are limits rather than exact numbers.

As to `CCc1nc(N2CCN(Cc3cnc(N4CC(C)(N)C4)nc3)CC2)ccc1-c1cc(C)c(=O)n(C)c1` [Example 3, 5-[6-[4-[[2-(3-amino-3-methyl-azetidin-1-yl)pyrimidin-5-yl]methyl]piperazin-1-yl]-2-ethyl-3-pyridyl]-1,3-dimethyl-pyridin-2-one], the IC50 in series [1] was found to be 377 nM. Also, in series [2], the IC50 is > 20000 nM; the IC20 (in general, the point of the concentration-response curve where the effect stands at 20%) was > 10000 nM; the “hERG IC20 / TLR8 IC50” value is given as >33000; the “hERG IC20 / TLR9 IC50” value is given as >31.4. Moreover, the “hERG IC20 /TLR7 IC50” value in series [2] is >724.6.
As to `CCc1nc(N2CCN(Cc3ccc(N4CC5(CNCCO5)C4)nc3)CC2)ccc1-c1cc(C)c(=O)n(C)c1` [Example 2, 5-[2-ethyl-6-[4-[[6-(5-oxa-2,8-diazaspiro[3.5]nonan-2-yl)-3 pyridyl]methyl]piperazin-1-yl]-3-pyridyl]-1,3-dimethyl-pyridin-2-one], the IC50 in series [1] worked out at 362 nM. In addition, in series [2], the IC50 is > 20000 nM, the IC20 is > 10000 nM, the “hERG IC20 / TLR8 IC50” value is listed as >33000 and the “hERG IC20 / TLR9 IC50” value is given as >47.1. The “hERG IC20 /TLR7 IC50” value in series [2] is on record as >961.8.
As to `Cc1cc(-c2ccc(N3CCN(Cc4ncc(N5CCNCC5)cn4)CC3)nc2C(C)C)cn(C)c1=O` [Example 12, 5-[2-isopropyl-6-[4-[(5-piperazin-1-ylpyrimidin-2-yl)methyl]piperazin-1-yl]-3-pyridyl]-1,3-dimethyl-pyridin-2-one], in series [1], the IC50 was found to be 115 nM.
For `Cc1cc(-c2ccc(N3CCN(Cc4cnc(N5CC6(CNCCO6)C5)nc4)CC3)nc2C(C)C)cn(C)c1=O` [Example 6, 5-[2-isopropyl-6-[4-[[2-(5-oxa-2,8-diazaspiro[3.5]nonan-2-yl)pyrimidin-5-yl]methyl]piperazin-1-yl]-3-pyridyl]-1,3-dimethyl-pyridin-2-one], the IC50 in series [1] is 730 nM.
For `Cc1cc(-c2ccc(N3CCC(N4CCNCC4)CC3)nc2C(C)C)cn(C)c1=O` [Example 18, 5-[2-isopropyl-6-(4-piperazin-1-yl-1-piperidyl)-3-pyridyl]-1,3-dimethyl-pyridin-2-one], the IC50 in series [1] amounted to 700 nM.
For the molecule `Cc1cc(-c2ccc(N3CCN4CCN(c5ccc(N6CCNCC6)nc5)CC4C3)nc2C(C)C)cn(C)c1=O` (centres unmarked) [Example 16, 5-[2-isopropyl-6-[8-(6-piperazin-1-yl-3-pyridyl)-3,4,6,7,9,9a-hexahydro-1H-pyrazino[1,2-a]pyrazin-2-yl]-3-pyridyl]-1,3-dimethyl-pyridin-2-one], the IC50 in series [1] was 263 nM.
For `Cc1cc(-c2ccc(N3CCN(Cc4ccc(N5CCNCC5)cn4)CC3)nc2C(C)C)cn(C)c1=O` [Example 7, 5-[2-isopropyl-6-[4-[(5-piperazin-1-yl-2-pyridyl)methyl]piperazin-1-yl]-3-pyridyl]-1,3-dimethyl-pyridin-2-one], the IC50 in series [1] was found to be 101 nM. For the same molecule, in series [2], the IC50 is > 20000 nM, the IC20 is 4700 nM, the “hERG IC20 / TLR8 IC50” value turned out to be 16000 and the “hERG IC20 / TLR9 IC50” value is given as 24.4. Besides, the “hERG IC20 /TLR7 IC50” value in series [2] is 940.
As to `CCc1nc(N2CCN(Cc3cnc(N4CC5(CNCCO5)C4)nc3)CC2)ccc1-c1cc(C)c(=O)n(C)c1` [Example 1, 5-[2-ethyl-6-[4-[[2-(5-oxa-2,8-diazaspiro[3.5]nonan-2-yl)pyrimidin-5-yl]methyl]piperazin-1-yl]-3-pyridyl]-1,3-dimethyl-pyridin-2-one], the IC50 in series [1] was 388 nM. Moreover, in series [2], the IC50 is > 20000 nM, the IC20 was > 10000 nM, the “hERG IC20 / TLR8 IC50” value is recorded as >14285.2 and the “hERG IC20 / TLR9 IC50” value is >14.2. Moreover, the “hERG IC20 /TLR7 IC50” value in series [2] is on record as >1052.6.
Take `Cc1cc(-c2ccc(N3CCN(Cc4cnc(N5CCNCC5)nc4)CC3)nc2C(C)C)cn(C)c1=O` [Example 9, 5-[2-isopropyl-6-[4-[(2-piperazin-1-ylpyrimidin-5-yl)methyl]piperazin-1-yl]-3-pyridyl]-1,3-dimethyl-pyridin-2-one]: in series [1], the IC50 came to 47 nM.
